The subject of series [1] is Hepatitis B virus (HBV). In words: HBV growth inhibition: inhibition of cytoplasmic HBV-DNA synthesis in HB611 cells (Southern blotting). The format is cell-based. How it is done:
Inhibitory activity against the growth of Hepatitis B virus (HBV)
(§1) HBV growth inhibitory activities of the compounds of the present invention were measured by a conventional method (K. Ueda, et al., Virology, 169, pp.213-216, 1989). HB611 cells (2×10^4, recombinant human hepatocellular carcinoma cells producing HBV) were cultured in Dulbecco ME medium containing 10% fetal bovine serum, streptomycin (100 μg/ml), penicillin (100 IU/ml), and Geneteicin (trade name, the antibiotic manufactured by Life Technologies, Co., Ltd., 0.2 mg/ml) at 37° C. The medium was changed with fresh medium on the second day and fifth day of the culture, and then the medium was changed with a medium containing a test compound at a final concentration of […] after 8, 11, and 14 days of the culture. Total cellular DNAs were collected on the 17th day of the culture. Amounts of the HBV-DNAs in the cells were measured by the Southern blotting method, and concentrations achieving 50% inhibition of cytoplasmic HBV-DNA synthesis were determined. concentrations of compounds required for 50% extinction of HB611 cells were also determined.

Series [2] is described as follows: Cytotoxicity: 50% extinction of HB611 cells. To be noted: human, read-out: 50% cytotoxic concentration against HB611 cells. Format: cell-based. How it is done:
as §1

Series [3] deals with Hepatitis B virus (HBV). Briefly: HBV growth inhibitory activity of mouse serum after oral administration (HB611 cells). The format is cell-based. To be noted: serum 5% (V/V) in HB611 cell medium. The procedure:
HBV growth inhibitory activity of mouse serum after oral administration
Groups of mice each consisting of three mice were administered orally with a test compound at a single dose of 1 g/kg or 0.3 g/kg. Blood was collected 30 minutes after the administration, and serum was prepared. HB611 cells (2×10^4, recombinant human hepatocellular carcinoma cells producing HBV) were cultured in Dulbecco ME medium containing 10% fetal bovine serum, streptomycin (100 μg/ml), penicillin (100 IU/ml), and Geneteicin (trade name, the antibiotic manufactured by Life Technologies, Co., Ltd., 0.2 mg/ml) at 37° C. The medium was changed with fresh medium on the second day and fifth day of the culture, and then the medium was changed with a medium containing a test serum at a final concentration of 5% (V/V) after 8, 11, and 14 days of the culture. Total cellular DNAs were collected on the 17th day of the culture. Amounts of the HBV-DNAs in the cells were measured by the Southern blotting method, and rates of inhibition of cytoplasmic HBV-DNA synthesis were determined. As a reference, a similar test was carried out using PMEA.

The test system of series [4] is herpes simplex type 1 virus (HSV-1). To be noted: literature; cited from earlier work.
The test system of series [5] is herpes simplex type 2 virus (HSV-2). As to conditions: literature; cited from earlier work.
Series [6] relates to human immunodeficiency virus (HIV). To be noted: literature; cited from earlier work.
The test system of series [7] is human hepatitis B virus (HBV). To be noted: literature; cited from earlier work.
The mark [8] stands for this setting: HB611 cells, compound in medium after 8, 11 and 14 days, DNA collected on 17th day, read-out: 50% inhibitory concentration against HBV-DNA synthesis.
[9] abbreviates: mouse serum 30 minutes after single oral dose of 0.3 g/kg.

SMILES strings stand for the structures. Read-outs that look alike come from different tables or passages of the source.

Turning to `Nc1nc(Sc2ccccc2)c2ncn(CCOCP(=O)(OCC(F)(F)F)OCC(F)(F)F)c2n1` [Compound No. 1, 2-amino-9-[2-[bis(2,2,2-trifluoroethyl)-phosphonylmethoxy]ethyl]-6-phenylthiopurine], in the series on Hepatitis B virus (HBV) [1] (setting [8]), the IC50 turned out to be 0.01 µM. Moreover, in series [2], the CC50 is greater than 1000 µM. For the same molecule, the “Inhibitory rate against HBV-DNA synthesis” value (“Inhibitory rate” below) in the series with Hepatitis B virus (HBV) [3] (setting [9]) came to 60.7%.
Take `COc1ccccc1Sc1nc(N)nc2c1ncn2CCOCP(=O)(OCC(F)(F)F)OCC(F)(F)F` [Compound No. 2, 2-amino-9-[2-[bis(2,2,2-trifluoroethyl)-phosphonylmethoxy]ethyl]-6-o-methoxyphenylthiopurine]: in the series on Hepatitis B virus (HBV) [1] (setting [8]), the IC50 was found to be 0.08 µM. Besides, the CC50 in series [2] was greater than 1000 µM.
Regarding `COc1cccc(Sc2nc(N)nc3c2ncn3CCOCP(=O)(OCC(F)(F)F)OCC(F)(F)F)c1` [Compound No. 3, 2-amino-9-[2-[bis(2,2,2-trifluoroethyl)-phosphonylmethoxy]ethyl]-6-m-methoxyphenylthiopurine], the IC50 with Hepatitis B virus (HBV) [1] (setting [8]) came to 0.04 µM. Further, in series [2], the CC50 is greater than 1000 µM.
For the molecule `COc1ccc(Sc2nc(N)nc3c2ncn3CCOCP(=O)(OCC(F)(F)F)OCC(F)(F)F)cc1` [Compound No. 4, 2-amino-9-[2-[bis(2,2,2-trifluoroethyl)-phosphonylmethoxy]ethyl]-6-p-methoxyphenylthiopurine], in the series on Hepatitis B virus (HBV) [1] (setting [8]), the IC50 came out at 0.05 µM. For the same molecule, the CC50 in series [2] was greater than 1000 µM. The “Inhibitory rate” value in the series with Hepatitis B virus (HBV) [3] (setting [9]) was 95.2%.
As to `Nc1nc(N)c2ncn(CCOCP(=O)(O)O)c2n1` [PMDAP, 9-(2-phosphonylmethoxy)ethyl-2,6-diaminopurine], the “reported as being effective against HSV-1” value in series [4] is reported as “effective”. Further, in series [5], the “reported as being effective against HSV-2” value is “effective”. For the same molecule, the “reported as being effective against HIV” value in series [6] is reported as “effective”. For the same molecule, the “reported as being effective against HBV” value in series [7] is reported as “effective”.
Consider `Nc1ncnc2c1ncn2CCOCP(=O)(O)O` [PMEA, 9-(2-phosphonylmethoxy) ethyladenine], for which the “Inhibitory rate” value in the series with Hepatitis B virus (HBV) [3] (mouse serum 30 minutes after single oral dose of 1.0 g/kg) is on record as 35.5%. In addition, the “reported as being effective against HSV-1” value in series [4] is “effective”. The “reported as being effective against HSV-2” value in series [5] is “effective”. Also, the “reported as being effective against HIV” value in series [6] was “effective”. Moreover, the “reported as being effective against HBV” value in series [7] is reported as “effective”.
With `CC(C)(C)C(=O)OCOP(=O)(COCCn1cnc2c(N)ncnc21)OCOC(=O)C(C)(C)C` [Reference 1, dipivaloyloxymethyl ester of PMEA], in the series on Hepatitis B virus (HBV) [1] (HB611, read-out: 50% inhibitory concentration against HBV-DNA synthesis), the IC50 worked out at 18.8 µM. Moreover, the CC50 in series [2] amounted to 11 µM.
Turning to `Cc1ccc(Sc2nc(N)nc3c2ncn3CCOCP(=O)(OCC(F)(F)F)OCC(F)(F)F)cc1` [Reference 2, 9-[2-[bis(2,2,2-trifluoroethyl)phosphonylmethoxy]ethyl]-2-amino-6-p-toluylthiopurine], in the series on Hepatitis B virus (HBV) [1] (setting [8]), the IC50 was found to be 0.06 µM. The CC50 in series [2] was 108 µM.

Values taken from patent publication US5840716A, “Phosphonate nucleotide compounds” (priority 1996, dated 1998).
